# Test results: ChEMBL document CHEMBL4118160, “Heterocycles: Versatile control elements in bioactive macrocycles” (Bioorg Med Chem, 2018)
# Target: Integrin alpha-V/beta-3 (Homo sapiens, UniProt P05106+P06756)
# Assay: Inhibition of vitronectin binding to alphaVbeta3 integrin (unknown origin) measured after 3 hrs
# Assay type: protein-complex assay
# Sequence of Integrin alpha-V/beta-3 (P05106 27-788 limits assumed): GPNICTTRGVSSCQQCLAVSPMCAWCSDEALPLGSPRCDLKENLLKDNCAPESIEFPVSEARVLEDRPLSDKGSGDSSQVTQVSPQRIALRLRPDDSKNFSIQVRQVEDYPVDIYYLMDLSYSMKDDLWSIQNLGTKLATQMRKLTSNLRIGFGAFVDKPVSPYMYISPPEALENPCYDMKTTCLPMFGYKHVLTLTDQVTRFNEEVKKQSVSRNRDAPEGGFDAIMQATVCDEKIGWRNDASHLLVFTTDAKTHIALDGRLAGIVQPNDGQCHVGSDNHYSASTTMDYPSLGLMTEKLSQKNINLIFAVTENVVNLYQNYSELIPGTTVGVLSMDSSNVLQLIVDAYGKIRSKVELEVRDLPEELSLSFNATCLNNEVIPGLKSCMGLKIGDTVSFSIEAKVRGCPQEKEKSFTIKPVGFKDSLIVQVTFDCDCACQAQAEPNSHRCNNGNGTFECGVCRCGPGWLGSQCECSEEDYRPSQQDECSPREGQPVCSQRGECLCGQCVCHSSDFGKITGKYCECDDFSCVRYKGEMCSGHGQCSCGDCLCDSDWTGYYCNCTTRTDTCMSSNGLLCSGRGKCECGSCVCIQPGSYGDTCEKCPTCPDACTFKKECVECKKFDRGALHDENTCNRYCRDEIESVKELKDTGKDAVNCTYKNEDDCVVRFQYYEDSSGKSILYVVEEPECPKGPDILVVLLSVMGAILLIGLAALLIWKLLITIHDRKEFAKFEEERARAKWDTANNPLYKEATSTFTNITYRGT
# Sequence of Integrin alpha-V/beta-3 (P06756 31-889 limits assumed): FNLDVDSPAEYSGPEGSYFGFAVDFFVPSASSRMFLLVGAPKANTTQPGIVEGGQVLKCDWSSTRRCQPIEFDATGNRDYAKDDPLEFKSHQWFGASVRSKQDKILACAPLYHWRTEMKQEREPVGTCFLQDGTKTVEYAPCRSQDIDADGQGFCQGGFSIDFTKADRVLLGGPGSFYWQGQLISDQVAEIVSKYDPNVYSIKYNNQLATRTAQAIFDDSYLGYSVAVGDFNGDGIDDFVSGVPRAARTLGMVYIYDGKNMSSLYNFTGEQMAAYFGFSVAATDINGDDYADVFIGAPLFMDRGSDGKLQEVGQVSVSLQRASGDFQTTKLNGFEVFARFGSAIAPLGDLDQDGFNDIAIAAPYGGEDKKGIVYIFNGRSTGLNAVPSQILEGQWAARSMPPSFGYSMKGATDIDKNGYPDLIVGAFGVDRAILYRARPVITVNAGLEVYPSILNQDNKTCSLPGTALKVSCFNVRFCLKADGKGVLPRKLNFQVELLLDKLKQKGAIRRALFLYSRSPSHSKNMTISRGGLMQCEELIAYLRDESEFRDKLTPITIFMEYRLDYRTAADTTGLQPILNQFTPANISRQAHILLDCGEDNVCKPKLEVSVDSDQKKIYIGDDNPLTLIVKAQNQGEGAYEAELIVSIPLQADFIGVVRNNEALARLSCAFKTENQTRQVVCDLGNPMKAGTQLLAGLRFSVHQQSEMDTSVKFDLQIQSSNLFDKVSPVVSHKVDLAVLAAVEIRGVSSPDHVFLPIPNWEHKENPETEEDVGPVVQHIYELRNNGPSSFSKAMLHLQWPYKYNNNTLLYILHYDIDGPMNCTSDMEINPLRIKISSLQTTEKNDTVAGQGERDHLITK
# Sequence of Integrin alpha-V/beta-3 (P06756 891-1048 limits assumed): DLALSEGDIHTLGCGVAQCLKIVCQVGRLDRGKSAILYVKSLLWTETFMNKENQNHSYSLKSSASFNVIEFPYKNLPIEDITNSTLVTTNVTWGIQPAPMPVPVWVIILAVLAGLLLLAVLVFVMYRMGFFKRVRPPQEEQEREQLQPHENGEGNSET
row,IC50 [µM],SMILES
1,≤ 0.15,N=C(N)NCCC[C@H]1NC(=O)CNC(=O)[C@@H](CC(=O)O)CN[C@H]2O[C@H](C1=O)[C@@H](OCc1ccccc1)[C@H](OCc1ccccc1)[C@H]2OCc1ccccc1
2,≤ 0.15,N=C(N)NCCC[C@H]1NC(=O)CNC(=O)[C@@H](CC(=O)O)CN[C@@H]2O[C@H](C1=O)[C@@H](OCc1ccccc1)[C@H](OCc1ccccc1)[C@H]2OCc1ccccc1
